From patent US12655130B2 (ASSEMBLY BIOSCIENCES, INC., priority 2020, dated 2026)

System: HBV viral load (viral production from HepAD38 cells)
Test: Activity of test compounds on viral production from HepAD38 cells (viral load by qPCR of HBV core sequence)
Format: cell-based
Conditions: Hepatitis B virus, HePAD38, 120 h, viral load lowering, 5 days, qPCR of supernatant, read-out: VL HepAD38 EC50 range
Procedure, shortened: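 EC50 and CC50 come from four-parameter logistic fits: HBV core DNA in supernatant by TaqMan qPCR against DNA standards, normalised to DMSO controls, and cell viability by CellTiter-Glo. Cells were plated at 50,000/well without tetracycline (2% FBS) and exposed to compounds (highest 10 μM) for 5 days, 37 °C.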

Structure (SMILES)	EC50 [µM]
Cc1cc(C2(O)CC3CC(c4ncn(C)c4C(=O)Nc4ccc(F)c(Cl)c4)CC3C2)[nH]n1 (stereo not drawn) [Example 144, N-(3-Chloro-4-fluorophenyl)-4-(5-hydroxy-5-(3-methyl-1H-pyrazol-5-yl)octahydropentalen-2-yl)-1-methyl-1H-imidazole-5-carboxamide]	< 0.01
Cn1cnc(C2CC3CC(O)(c4c(C(F)F)cnn4C)CC3C2)c1C(=O)Nc1ccc(F)c(Cl)c1 (stereo not drawn) [Example 145, N-(3-Chloro-4-fluorophenyl)-4-(5-(4-(difluoromethyl)-1-methyl-1H-pyrazol-5-yl)-5-hydroxyoctahydropentalen-2-yl)-1-methyl-1H-imidazole-5-carboxamide]	< 0.01
Cn1cnc(C2CC3CC(O)(c4cc([N+](=O)[O-])n[nH]4)CC3C2)c1C(=O)Nc1ccc(F)c(Cl)c1 (stereo not drawn) [Example 146, N-(3-Chloro-4-fluorophenyl)-4-(5-hydroxy-5-(3-nitro-1H-pyrazol-5-yl)octahydropentalen-2-yl)-1-methyl-1H-imidazole-5-carboxamide]	< 0.01
Cn1cnc(C2CC3CC(O)(c4cnn(C)c4C(F)F)CC3C2)c1C(=O)Nc1ccc(F)c(Cl)c1 (stereo not drawn) [Example 147, N-(3-Chloro-4-fluorophenyl)-4-(5-(5-(difluoromethyl)-1-methyl-1H-pyrazol-4-yl)-5-hydroxyoctahydropentalen-2-yl)-1-methyl-1H-imidazole-5-carboxamide]	< 0.01
Cn1cnc(C2CC3CC(O)(c4[nH]ncc4F)CC3C2)c1C(=O)Nc1ccc(F)c(Cl)c1 (stereo not drawn) [Example 148, N-(3-Chloro-4-fluorophenyl)-4-(5-(4-fluoro-1H-pyrazol-5-yl)-5-hydroxyoctahydropentalen-2-yl)-1-methyl-1H-imidazole-5-carboxamide]	< 0.01
Cn1cnc(C2CC3CC(O)(c4[nH]ncc4C(F)(F)F)CC3C2)c1C(=O)Nc1ccc(F)c(Cl)c1 (stereo not drawn) [Example 149, N-(3-Chloro-4-fluorophenyl)-4-(5-hydroxy-5-(4-(trifluoromethyl)-1H-pyrazol-5-yl)octahydropentalen-2-yl)-1-methyl-1H-imidazole-5-carboxamide]	< 0.01
Cn1cnc(C2CC3CC(O)(c4c[nH]nc4C(F)(F)F)CC3C2)c1C(=O)Nc1ccc(F)c(Cl)c1 (stereo not drawn) [Example 150, N-(3-Chloro-4-fluorophenyl)-4-(5-hydroxy-5-(3-(trifluoromethyl)-1H-pyrazol-4-yl)octahydropentalen-2-yl)-1-methyl-1H-imidazole-5-carboxamide]	< 0.01
CCn1cc(C2(O)CC3CC(c4ncn(C)c4C(=O)Nc4ccc(F)c(Cl)c4)CC3C2)c(C(F)(F)F)n1 (stereo not drawn) [Example 151, N-(3-Chloro-4-fluorophenyl)-4-(5-(1-ethyl-3-(trifluoromethyl)-1H-pyrazol-4-yl)-5-hydroxyoctahydropentalen-2-yl)-1-methyl-1H-imidazole-5-carboxamide]	< 0.01
CCn1nc(C(F)F)cc1C1(O)CC2CC(c3ncn(C)c3C(=O)Nc3ccc(F)c(Cl)c3)CC2C1 (stereo not drawn) [Example 152, N-(3-Chloro-4-fluorophenyl)-4-(5-(3-(difluoromethyl)-1-ethyl-1H-pyrazol-5-yl)-5-hydroxyoctahydropentalen-2-yl)-1-methyl-1H-imidazole-5-carboxamide]	< 0.01
CC(C)n1nc(C(F)F)cc1C1(O)CC2CC(c3ncn(C)c3C(=O)Nc3ccc(F)c(Cl)c3)CC2C1 (stereo not drawn) [Example 153, N-(3-Chloro-4-fluorophenyl)-4-(5-(3-(difluoromethyl)-1-isopropyl-1H-pyrazol-5-yl)-5-hydroxyoctahydropentalen-2-yl)-1-methyl-1H-imidazole-5-carboxamide]	< 0.01
CC(C)n1cc(Cl)c(C2(O)CC3CC(c4ncn(C)c4C(=O)Nc4ccc(F)c(Cl)c4)CC3C2)n1 (stereo not drawn) [Example 154, 4-(5-(4-Chloro-1-isopropyl-1H-pyrazol-3-yl)-5-hydroxyoctahydropentalen-2-yl)-N-(3-chloro-4-fluorophenyl)-1-methyl-1H-imidazole-5-carboxamide]	< 0.01
Cn1cnc(C2CC3CC(O)(Cc4cc(C(F)(F)F)nn4C)CC3C2)c1C(=O)Nc1ccc(F)c(Cl)c1 (stereo not drawn) [Example 155, N-(3-Chloro-4-fluorophenyl)-4-(5-hydroxy-5-((1-methyl-3-(trifluoromethyl)-1H-pyrazol-5-yl)methyl)octahydropentalen-2-yl)-1-methyl-1H-imidazole-5-carboxamide]	< 0.01
Cn1cc(C(F)(F)F)c(C2(O)CC3CC(c4ncn(C)c4C(=O)Nc4ccc(F)c(Cl)c4)CC3C2)n1 (stereo not drawn) [Example 156, N-(3-Chloro-4-fluorophenyl)-4-(5-hydroxy-5-(1-methyl-4-(trifluoromethyl)-1H-pyrazol-3-yl)octahydropentalen-2-yl)-1-methyl-1H-imidazole-5-carboxamide]	< 0.01
CC(C)n1cc(C2(O)CC3CC(c4ncn(C)c4C(=O)Nc4ccc(F)c(Cl)c4)CC3C2)c(C(F)(F)F)n1 (stereo not drawn) [Example 157, N-(3-Chloro-4-fluorophenyl)-4-(5-hydroxy-5-(1-isopropyl-3-(trifluoromethyl)-1H-pyrazol-4-yl)octahydropentalen-2-yl)-1-methyl-1H-imidazole-5-carboxamide]	< 0.01
CC(C)n1ncc(C2(O)CC3CC(c4ncn(C)c4C(=O)Nc4ccc(F)c(Cl)c4)CC3C2)c1C(F)(F)F (stereo not drawn) [Example 158, N-(3-Chloro-4-fluorophenyl)-4-(5-hydroxy-5-(1-isopropyl-5-(trifluoromethyl)-1H-pyrazol-4-yl)octahydropentalen-2-yl)-1-methyl-1H-imidazole-5-carboxamide]	< 0.01
CCn1cc(C(F)(F)F)c(C2(O)CC3CC(c4ncn(C)c4C(=O)Nc4ccc(F)c(Cl)c4)CC3C2)n1 (stereo not drawn) [Example 159, N-(3-Chloro-4-fluorophenyl)-4-(5-(1-ethyl-4-(trifluoromethyl)-1H-pyrazol-3-yl)-5-hydroxyoctahydropentalen-2-yl)-1-methyl-1H-imidazole-5-carboxamide]	< 0.01
CC(C)n1cc(C(F)(F)F)c(C2(O)CC3CC(c4ncn(C)c4C(=O)Nc4ccc(F)c(Cl)c4)CC3C2)n1 (stereo not drawn) [Example 160, N-(3-Chloro-4-fluorophenyl)-4-(5-hydroxy-5-(1-isopropyl-4-(trifluoromethyl)-1H-pyrazol-3-yl)octahydropentalen-2-yl)-1-methyl-1H-imidazole-5-carboxamide]	< 0.01
CCC(C)n1nc(N)cc1C1(O)CC2CC(c3ncn(C)c3C(=O)Nc3ccc(F)c(Cl)c3)CC2C1 (stereo not drawn) [Example 161, 4-(5-(3-Amino-1-(sec-butyl)-1H-pyrazol-5-yl)-5-hydroxyoctahydropentalen-2-yl)-N-(3-chloro-4-fluorophenyl)-1-methyl-1H-imidazole-5-carboxamide]	< 0.01
CCn1cc(C2(O)CC3CC(c4ncn(C)c4C(=O)Nc4ccc(F)c(Cl)c4)CC3C2)c(C(F)F)n1 (stereo not drawn) [Example 162, N-(3-Chloro-4-fluorophenyl)-4-(5-(3-(difluoromethyl)-1-ethyl-1H-pyrazol-4-yl)-5-hydroxyoctahydropentalen-2-yl)-1-methyl-1H-imidazole-5-carboxamide]	< 0.01
CC(=O)Nc1cc(C2(O)CC3CC(c4ncn(C)c4C(=O)Nc4ccc(F)c(Cl)c4)CC3C2)n(C)n1 (stereo not drawn) [Example 163, 4-(5-(3-Acetamido-1-methyl-1H-pyrazol-5-yl)-5-hydroxyoctahydropentalen-2-yl)-N-(3-chloro-4-fluorophenyl)-1-methyl-1H-imidazole-5-carboxamide]	< 0.01
CC(C)n1nc([N+](=O)[O-])cc1C1(O)CC2CC(c3ncn(C)c3C(=O)Nc3ccc(F)c(Cl)c3)CC2C1 (stereo not drawn) [Example 164, N-(3-Chloro-4-fluorophenyl)-4-(5-hydroxy-5-(1-isopropyl-3-nitro-1H-pyrazol-5-yl)octahydropentalen-2-yl)-1-methyl-1H-imidazole-5-carboxamide]	< 0.01
CC(C)Cn1nc([N+](=O)[O-])cc1C1(O)CC2CC(c3ncn(C)c3C(=O)Nc3ccc(F)c(Cl)c3)CC2C1 (stereo not drawn) [Example 165, N-(3-Chloro-4-fluorophenyl)-4-(5-hydroxy-5-(1-isobutyl-3-nitro-1H-pyrazol-5-yl)octahydropentalen-2-yl)-1-methyl-1H-imidazole-5-carboxamide]	< 0.01
CC(=O)Nc1cc(C2(O)CC3CC(c4ncn(C)c4C(=O)Nc4ccc(F)c(Cl)c4)CC3C2)n(C(C)C)n1 (stereo not drawn) [Example 166, 4-(5-(3-Acetamido-1-isopropyl-1H-pyrazol-5-yl)-5-hydroxyoctahydropentalen-2-yl)-N-(3-chloro-4-fluorophenyl)-1-methyl-1H-imidazole-5-carboxamide]	< 0.01
CCn1nc(N)c(Cl)c1C1(O)CC2CC(c3ncn(C)c3C(=O)Nc3ccc(F)c(Cl)c3)CC2C1 (stereo not drawn) [Example 168, 4-(5-(3-Amino-4-chloro-1-ethyl-1H-pyrazol-5-yl)-5-hydroxyoctahydropentalen-2-yl)-N-(3-chloro-4-fluorophenyl)-1-methyl-1H-imidazole-5-carboxamide]	0.01 to 0.05
Cn1cnc(C2CC3CC(O)(c4n[nH]cc4C(F)F)CC3C2)c1C(=O)Nc1ccc(F)c(Cl)c1 (stereo not drawn) [Example 169, N-(3-Chloro-4-fluorophenyl)-4-(5-(4-(difluoromethyl)-1H-pyrazol-3-yl)-5-hydroxyoctahydropentalen-2-yl)-1-methyl-1H-imidazole-5-carboxamide]	< 0.01
Cn1cnc(C2CC3CC(O)(c4c[nH]nc4C(F)F)CC3C2)c1C(=O)Nc1ccc(F)c(Cl)c1 (stereo not drawn) [Example 170, N-(3-Chloro-4-fluorophenyl)-4-(5-(3-(difluoromethyl)-1H-pyrazol-4-yl)-5-hydroxyoctahydropentalen-2-yl)-1-methyl-1H-imidazole-5-carboxamide]	< 0.01
Cc1cc(NC(=O)c2c(C3CC4CC(O)(c5cn(C)nc5C(F)(F)F)CC4C3)ncn2C)ccc1F (stereo not drawn) [Example 171, N-(4-Fluoro-3-methylphenyl)-4-(5-hydroxy-5-(1-methyl-3-(trifluoromethyl)-1H-pyrazol-4-yl)octahydropentalen-2-yl)-1-methyl-1H-imidazole-5-carboxamide]	< 0.01
